Test results: article doi:10.1101/2024.08.13.607785v1 (biorxiv, 2024)

Experiments:
Parameters in all cases: species or system mixed lysate of K562, MV4-11, THP-1, NCI-H1155
[1] = biological target: T1, Cyclin-G-associated kinase ; GAK ; O14976 (Homo sapiens, UniProt O14976); conditions: DIA-MS residual binding; binder
T1 sequence (O14976 1-1311): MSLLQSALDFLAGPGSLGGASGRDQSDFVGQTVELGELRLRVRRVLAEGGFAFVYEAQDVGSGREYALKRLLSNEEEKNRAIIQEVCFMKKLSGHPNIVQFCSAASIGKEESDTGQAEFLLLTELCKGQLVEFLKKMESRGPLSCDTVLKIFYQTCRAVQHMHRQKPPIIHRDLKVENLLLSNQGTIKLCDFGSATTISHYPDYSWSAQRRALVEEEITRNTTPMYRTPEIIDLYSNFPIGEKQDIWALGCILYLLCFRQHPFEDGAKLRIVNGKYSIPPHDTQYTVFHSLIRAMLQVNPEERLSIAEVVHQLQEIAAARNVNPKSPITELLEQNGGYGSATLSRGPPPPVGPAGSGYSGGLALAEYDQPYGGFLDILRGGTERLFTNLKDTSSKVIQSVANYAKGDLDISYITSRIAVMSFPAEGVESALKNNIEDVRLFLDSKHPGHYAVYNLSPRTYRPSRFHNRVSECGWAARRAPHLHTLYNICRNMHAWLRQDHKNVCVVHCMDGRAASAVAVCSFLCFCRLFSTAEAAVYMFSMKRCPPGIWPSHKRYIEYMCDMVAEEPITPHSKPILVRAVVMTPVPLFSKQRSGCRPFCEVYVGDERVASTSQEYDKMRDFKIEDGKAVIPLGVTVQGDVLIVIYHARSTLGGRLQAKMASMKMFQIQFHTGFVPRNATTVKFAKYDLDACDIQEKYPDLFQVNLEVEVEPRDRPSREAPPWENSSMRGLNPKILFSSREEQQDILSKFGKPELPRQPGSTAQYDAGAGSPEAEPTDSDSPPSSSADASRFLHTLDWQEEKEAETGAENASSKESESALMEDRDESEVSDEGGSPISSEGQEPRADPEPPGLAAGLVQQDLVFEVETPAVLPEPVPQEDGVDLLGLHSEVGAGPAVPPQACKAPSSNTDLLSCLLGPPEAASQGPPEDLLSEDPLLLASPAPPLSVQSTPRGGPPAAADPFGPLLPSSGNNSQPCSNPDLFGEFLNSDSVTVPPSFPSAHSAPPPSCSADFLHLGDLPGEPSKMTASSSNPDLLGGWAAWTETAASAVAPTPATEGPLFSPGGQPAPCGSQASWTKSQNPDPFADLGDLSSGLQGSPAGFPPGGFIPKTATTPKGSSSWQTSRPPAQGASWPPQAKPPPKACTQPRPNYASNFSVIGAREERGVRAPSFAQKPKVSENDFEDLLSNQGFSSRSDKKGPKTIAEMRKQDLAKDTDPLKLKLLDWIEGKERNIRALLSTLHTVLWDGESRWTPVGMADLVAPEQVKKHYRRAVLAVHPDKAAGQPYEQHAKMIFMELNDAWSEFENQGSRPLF

[2] = biological target: Integrin-linked protein kinase ; ILK ; Q13418 (Homo sapiens, UniProt Q13418); conditions: DIA-MS residual binding; binder
[3] = biological target: Isoform 3 of Serine/threonine-protein kinase SIK3 ; SIK3-7 ; Q9Y2K2-7 (Homo sapiens, UniProt Q9Y2K2); conditions: DIA-MS residual binding; binder
[4] = biological target: LIM domain kinase 1 ; LIMK1 ; P53667 (Homo sapiens, UniProt P53667); conditions: DIA-MS residual binding; binder
[5] = biological target: Mitogen-activated protein kinase kinase kinase 4 ; MAP3K4 ; Q9Y6R4 (Homo sapiens, UniProt Q9Y6R4); conditions: binder
[6] = biological target: Receptor-interacting serine/threonine-protein kinase 2 ; RIPK2 ; O43353 (Homo sapiens, UniProt O43353); conditions: DIA-MS residual binding; binder
[7] = biological target: Serine/threonine-protein kinase LMTK2 ; LMTK2 ; Q8IWU2 (Homo sapiens, UniProt Q8IWU2); conditions: DIA-MS residual binding; binder
[8] = biological target: T2, Serine/threonine-protein kinase NLK ; NLK ; Q9UBE8 (Homo sapiens, UniProt Q9UBE8); conditions: DIA-MS residual binding; binder
T2 sequence (Q9UBE8 1-527): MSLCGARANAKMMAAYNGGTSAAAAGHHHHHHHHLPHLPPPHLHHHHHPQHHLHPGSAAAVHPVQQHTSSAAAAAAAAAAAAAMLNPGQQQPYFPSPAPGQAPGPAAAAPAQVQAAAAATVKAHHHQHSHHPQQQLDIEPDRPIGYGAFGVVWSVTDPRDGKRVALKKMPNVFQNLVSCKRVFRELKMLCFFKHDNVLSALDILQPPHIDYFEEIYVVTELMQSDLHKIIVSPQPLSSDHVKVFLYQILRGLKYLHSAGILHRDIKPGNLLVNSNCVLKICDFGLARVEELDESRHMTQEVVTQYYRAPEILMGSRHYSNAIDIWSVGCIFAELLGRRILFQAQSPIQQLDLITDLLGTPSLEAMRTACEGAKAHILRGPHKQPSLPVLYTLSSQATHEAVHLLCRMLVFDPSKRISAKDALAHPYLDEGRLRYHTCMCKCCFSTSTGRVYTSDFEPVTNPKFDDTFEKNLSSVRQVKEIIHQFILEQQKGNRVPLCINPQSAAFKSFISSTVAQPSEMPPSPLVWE

[9] = biological target: Tyrosine-protein kinase CSK ; CSK ; P41240 (Homo sapiens, UniProt P41240); conditions: binder

Chain of Isoform 3 of Serine/threonine-protein kinase SIK3 ; SIK3-7 ; Q9Y2K2-7 (Q9Y2K2 whole entry, the tested form may be a part, canonical isoform, one chain of several): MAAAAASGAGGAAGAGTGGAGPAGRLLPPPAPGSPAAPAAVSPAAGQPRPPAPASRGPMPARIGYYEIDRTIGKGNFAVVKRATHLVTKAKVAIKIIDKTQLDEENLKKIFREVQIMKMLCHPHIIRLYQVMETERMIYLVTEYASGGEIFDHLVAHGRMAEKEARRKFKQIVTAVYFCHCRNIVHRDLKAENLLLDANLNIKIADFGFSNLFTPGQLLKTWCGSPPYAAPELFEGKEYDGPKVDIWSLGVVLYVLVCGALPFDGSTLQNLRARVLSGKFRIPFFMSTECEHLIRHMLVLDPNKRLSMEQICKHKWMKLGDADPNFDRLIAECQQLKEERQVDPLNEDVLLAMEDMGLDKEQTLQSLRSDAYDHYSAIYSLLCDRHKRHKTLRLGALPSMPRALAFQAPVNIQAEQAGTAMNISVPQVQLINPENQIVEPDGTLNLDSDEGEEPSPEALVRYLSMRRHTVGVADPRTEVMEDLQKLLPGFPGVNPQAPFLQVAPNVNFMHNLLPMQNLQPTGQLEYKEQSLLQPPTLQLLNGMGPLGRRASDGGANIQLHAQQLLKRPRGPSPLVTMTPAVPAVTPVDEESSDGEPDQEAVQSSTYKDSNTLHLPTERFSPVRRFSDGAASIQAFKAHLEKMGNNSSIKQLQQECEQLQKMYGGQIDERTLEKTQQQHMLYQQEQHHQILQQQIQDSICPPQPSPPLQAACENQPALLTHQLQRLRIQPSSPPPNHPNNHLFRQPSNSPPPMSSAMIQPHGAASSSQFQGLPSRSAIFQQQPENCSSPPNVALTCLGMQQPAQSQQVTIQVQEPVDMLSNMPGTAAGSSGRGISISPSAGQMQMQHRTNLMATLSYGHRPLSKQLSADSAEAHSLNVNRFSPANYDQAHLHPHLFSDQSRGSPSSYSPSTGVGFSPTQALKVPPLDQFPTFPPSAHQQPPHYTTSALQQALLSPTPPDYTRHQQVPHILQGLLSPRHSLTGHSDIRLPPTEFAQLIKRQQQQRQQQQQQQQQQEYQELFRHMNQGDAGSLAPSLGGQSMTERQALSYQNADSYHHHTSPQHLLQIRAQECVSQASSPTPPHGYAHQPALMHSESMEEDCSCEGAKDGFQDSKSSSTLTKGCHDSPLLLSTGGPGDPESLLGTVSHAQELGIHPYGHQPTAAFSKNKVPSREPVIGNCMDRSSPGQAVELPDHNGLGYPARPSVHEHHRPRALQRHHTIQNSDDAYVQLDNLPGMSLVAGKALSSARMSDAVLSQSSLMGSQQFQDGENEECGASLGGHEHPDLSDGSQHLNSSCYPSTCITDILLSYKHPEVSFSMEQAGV
Chain of Receptor-interacting serine/threonine-protein kinase 2 ; RIPK2 ; O43353 (O43353 whole entry, one chain of several): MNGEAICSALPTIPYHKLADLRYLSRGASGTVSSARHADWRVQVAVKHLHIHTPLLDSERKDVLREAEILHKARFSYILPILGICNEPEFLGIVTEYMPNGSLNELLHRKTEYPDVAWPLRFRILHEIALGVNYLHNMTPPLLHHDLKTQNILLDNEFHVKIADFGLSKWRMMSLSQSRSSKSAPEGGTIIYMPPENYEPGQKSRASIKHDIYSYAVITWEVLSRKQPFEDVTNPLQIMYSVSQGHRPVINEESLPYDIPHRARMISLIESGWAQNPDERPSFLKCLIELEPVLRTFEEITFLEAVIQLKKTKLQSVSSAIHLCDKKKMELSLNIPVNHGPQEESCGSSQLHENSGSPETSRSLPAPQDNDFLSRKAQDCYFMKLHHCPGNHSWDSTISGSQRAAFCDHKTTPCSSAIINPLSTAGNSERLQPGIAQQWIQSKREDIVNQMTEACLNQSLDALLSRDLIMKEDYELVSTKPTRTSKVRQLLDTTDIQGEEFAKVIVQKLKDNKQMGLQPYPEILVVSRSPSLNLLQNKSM
Chain of Mitogen-activated protein kinase kinase kinase 4 ; MAP3K4 ; Q9Y6R4 (Q9Y6R4 whole entry): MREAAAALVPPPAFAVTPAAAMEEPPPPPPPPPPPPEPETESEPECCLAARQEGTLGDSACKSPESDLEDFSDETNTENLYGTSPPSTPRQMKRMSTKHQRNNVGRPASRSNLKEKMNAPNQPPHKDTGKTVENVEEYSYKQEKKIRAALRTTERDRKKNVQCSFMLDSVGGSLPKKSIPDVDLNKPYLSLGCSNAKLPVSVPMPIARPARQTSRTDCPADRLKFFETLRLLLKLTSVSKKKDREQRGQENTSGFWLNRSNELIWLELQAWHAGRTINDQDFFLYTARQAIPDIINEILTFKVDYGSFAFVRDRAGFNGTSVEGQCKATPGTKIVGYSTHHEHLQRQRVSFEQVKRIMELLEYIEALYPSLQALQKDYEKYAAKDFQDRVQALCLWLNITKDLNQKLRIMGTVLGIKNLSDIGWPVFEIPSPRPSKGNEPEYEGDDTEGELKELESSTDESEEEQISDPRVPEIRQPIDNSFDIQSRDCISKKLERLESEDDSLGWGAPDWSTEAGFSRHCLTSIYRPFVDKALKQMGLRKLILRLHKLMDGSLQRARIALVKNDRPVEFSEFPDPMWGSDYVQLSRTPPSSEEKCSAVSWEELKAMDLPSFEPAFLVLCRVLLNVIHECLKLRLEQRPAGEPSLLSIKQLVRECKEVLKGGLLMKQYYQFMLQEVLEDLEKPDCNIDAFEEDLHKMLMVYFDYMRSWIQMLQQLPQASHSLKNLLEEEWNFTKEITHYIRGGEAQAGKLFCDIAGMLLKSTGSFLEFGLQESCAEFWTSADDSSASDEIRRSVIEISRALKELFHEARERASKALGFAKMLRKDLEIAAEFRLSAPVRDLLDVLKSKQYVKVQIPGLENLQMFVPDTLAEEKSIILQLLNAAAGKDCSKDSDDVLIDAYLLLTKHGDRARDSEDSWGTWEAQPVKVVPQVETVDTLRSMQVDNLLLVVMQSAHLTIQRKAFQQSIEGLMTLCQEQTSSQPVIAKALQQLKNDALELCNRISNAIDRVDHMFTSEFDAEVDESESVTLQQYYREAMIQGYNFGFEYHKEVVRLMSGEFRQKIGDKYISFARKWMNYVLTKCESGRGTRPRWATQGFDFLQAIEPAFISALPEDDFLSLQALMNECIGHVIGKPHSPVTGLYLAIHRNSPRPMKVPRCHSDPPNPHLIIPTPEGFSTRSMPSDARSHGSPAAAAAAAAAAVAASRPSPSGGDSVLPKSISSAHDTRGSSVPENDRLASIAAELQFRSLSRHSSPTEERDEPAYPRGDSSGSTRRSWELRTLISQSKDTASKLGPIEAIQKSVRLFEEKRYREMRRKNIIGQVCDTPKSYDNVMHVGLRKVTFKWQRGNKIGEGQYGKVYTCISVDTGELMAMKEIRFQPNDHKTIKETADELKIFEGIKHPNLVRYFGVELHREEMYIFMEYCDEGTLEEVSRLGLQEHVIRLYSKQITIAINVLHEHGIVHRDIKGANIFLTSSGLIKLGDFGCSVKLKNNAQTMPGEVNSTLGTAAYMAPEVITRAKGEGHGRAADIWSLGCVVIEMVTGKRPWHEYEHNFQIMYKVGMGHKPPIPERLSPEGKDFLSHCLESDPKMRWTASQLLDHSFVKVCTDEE
Chain of LIM domain kinase 1 ; LIMK1 ; P53667 (P53667 whole entry, the tested form may be a part): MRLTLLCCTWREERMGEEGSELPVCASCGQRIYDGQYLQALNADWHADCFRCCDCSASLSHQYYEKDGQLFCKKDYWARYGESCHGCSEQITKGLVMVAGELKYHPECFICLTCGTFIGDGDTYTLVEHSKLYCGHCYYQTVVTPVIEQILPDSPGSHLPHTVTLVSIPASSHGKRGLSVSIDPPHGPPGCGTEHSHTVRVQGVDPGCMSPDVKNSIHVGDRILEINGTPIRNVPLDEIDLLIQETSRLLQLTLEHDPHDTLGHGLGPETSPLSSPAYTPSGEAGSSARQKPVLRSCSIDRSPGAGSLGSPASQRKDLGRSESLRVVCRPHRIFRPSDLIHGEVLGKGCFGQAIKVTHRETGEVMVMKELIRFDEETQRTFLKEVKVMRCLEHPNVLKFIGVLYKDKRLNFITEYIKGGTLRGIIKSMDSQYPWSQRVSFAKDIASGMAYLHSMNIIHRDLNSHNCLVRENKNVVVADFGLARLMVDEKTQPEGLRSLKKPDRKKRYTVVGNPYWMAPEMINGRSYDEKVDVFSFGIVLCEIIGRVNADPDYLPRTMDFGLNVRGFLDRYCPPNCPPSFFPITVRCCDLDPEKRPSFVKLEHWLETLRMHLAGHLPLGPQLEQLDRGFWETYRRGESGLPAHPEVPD
Chain of Integrin-linked protein kinase ; ILK ; Q13418 (Q13418 whole entry, canonical isoform): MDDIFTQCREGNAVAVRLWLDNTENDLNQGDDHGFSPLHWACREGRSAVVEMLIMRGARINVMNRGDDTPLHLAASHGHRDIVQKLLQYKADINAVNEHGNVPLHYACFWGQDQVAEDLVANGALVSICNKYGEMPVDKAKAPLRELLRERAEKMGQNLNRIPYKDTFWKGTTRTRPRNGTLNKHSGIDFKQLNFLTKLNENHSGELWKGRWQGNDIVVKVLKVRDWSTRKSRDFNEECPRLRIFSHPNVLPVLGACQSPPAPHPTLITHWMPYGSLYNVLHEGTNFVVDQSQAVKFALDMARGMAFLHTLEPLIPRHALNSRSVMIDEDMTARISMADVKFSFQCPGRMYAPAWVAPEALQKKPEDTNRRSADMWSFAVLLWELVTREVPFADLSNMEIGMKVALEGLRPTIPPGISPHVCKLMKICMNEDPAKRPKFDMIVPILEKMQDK

DIA-MS / % Intensity (30 µM/DMSO) [1]: 4.611%
DIA-MS / % Intensity (30 µM/DMSO) [2]: 38.96%
DIA-MS / % Intensity (30 µM/DMSO) [3]: 12.26%
DIA-MS / % Intensity (30 µM/DMSO) [4]: 33.27%
DIA-MS / % Intensity (30 µM/DMSO) [5]: 31.25%
DIA-MS / % Intensity (30 µM/DMSO) [6]: 2.357%
DIA-MS / % Intensity (30 µM/DMSO) [7]: 9.818%
DIA-MS / % Intensity (30 µM/DMSO) [8]: 47.56%
DIA-MS / % Intensity (30 µM/DMSO) [9]: 0.9845%
Structure (SMILES): Cc1nc(Nc2ncc(C(=O)Nc3c(C)cccc3Cl)s2)cc(N2CCN(CCO)CC2)n1 [dasatinib]
